# In US7348305B2, “Inhibitor of cardiac tachyarrhythmias” (Department of Veterans Affairs, Rehabilitation, priority 2003, dated 2008):
# Entries after “also recorded” stand apart in the source; their conditions may differ.
# Test system: ventricular tachyarrhythmias following LAD coronary artery ligation
# Experiment: Model 1: two-stage LAD coronary artery ligation, Holter EKG monitoring 2-24 hr (ventricular triplets, sustained VT/VF, death)
# Type: in vivo, dog
# Procedure: The two-stage ligation procedure results in a very low incidence of ventricular fibrillation (<5-10%) during the initial 6 hours following coronary artery occlusion (Harris et al., 1951). Almost all ventricular fibrillation occurs during the initial 30 minutes with a high proportion of successful defibrillation. Ambulatory EKG monitoring is performed over the 2-24 hr period following coronary artery ligation. During the 6-24 hr period, a 25-40% incidence of rapid monomorphic ventricular tachycardia (385±15/min) leading to ventricular fibrillation is observed at 13.3±0.8 hours post-LAD ligation (FIG. 1), with a mean duration of monomorphic ventricular tachycardia preceding ventricular fibrillation of 66±7 sec. When provocative ventricular pacing is performed at 24 hours, however, the reentrant substrate supporting sustained ventricular tachycardia is present in more than 80% of the surviving dogs with no difference in rate between spontaneous and pacing-induced sustained monomorphic ventricular tachycardias (FIG. 3).
# In the 24-hr Infarct (Model 1) Studies, each control and etanercept pretreated animal was monitored for ventricular arrhythmias using a Holter 2-lead recording for the duration of time following LAD ligation. […] In the saline control group, 4 animals died at 11-24 hours post ligation. […]
# Model 1: Electrophysiologic correlates of myocardial infarction over a 24-hr period. Eighteen 15-22 kg male mongrel dogs were anesthetized with IV sodium pentobarbital (30 mg/kg). A cuffed endotracheal tube was inserted and the animals were ventilated with room air using a volume-cycled respirator. […] The dogs were extubated and allowed to awaken in a temperature-controlled, humidified small animal post-operative recovery unit. They were given nalbuphine 0.2 mg/kg for post-operative analgesia. During the 2-24 hr period following LAD ligation, Holter monitoring was performed and the two-lead EKG was recorded on magnetic tape. Dogs were re-anesthetized with sodium pentobarbital at 24-hr. The thoracotomy was reopened and the heart was removed and perfused with ice-cold Tyrode's buffer via the left main coronary artery. The outer 0.5-1.5 mm EBZ tissue overlying the infarct was shaved and a longitudinal sample of tissue from the LAD region was stained with triphenyltetrazolium chloride (0.1%) to determine viability of the EBZ. Triphenyltetrazolium (TTZ) forms a brick-red precipitate in the presence of active intracellular dehydrogenases, delineating vital tissue. Non-viable tissues are not stained and remain a pale color. […] Tissue samples from the RS, the EBZ and the infarct tissue were dissected rapidly on an ice-cold surface, placed in freezer vials, and frozen in liquid nitrogen. These samples were then stored at −70° C. for later assay.
# EKG Analysis: Full disclosure EKG records were obtained at 10 mm/sec for the entire 2-24 hour post-occlusion period. All measurements and calculations were made by direct visual observation and manual counting.
# Anti-TNFα Treatment: A dosage of 2 mg/kg hTNFR:Fc (supplied as etanercept, Amgen, Inc, Thousand Oaks, Calif.) or saline were injected IV into a forepaw vein at 24-hr and again 1-hr prior to LAD ligation. […] This dosage was used after consultation with the pharmaceutical corporate pharmacology section and based on unpublished internal data that this dosage would provide maximal sequestration of tissue and circulating TNFα.
substance,measurement,setting,value
etanercept,"fastest ventricular triplet rate observed per hour after LAD ligation (FIG. 18, FIG. 32)",4 to 24 hr after LAD ligation,significant reduction
same,mortality (dogs died of group),"24 hr after LAD ligation, etanercept 2 mg/kg at -24 and -1 hr, bortezomib 0.0875 mg/kg at -1 and +6 hr, anakinra 10 mg/kg at -1 and +12 hr, control 4 of 10, preliminary",0 of 8
same,frequency of very rapid (≧360 bpm) ventricular triplets,"etanercept 2 mg/kg IV 24 and 1 hr before LAD ligation, 4-24 hr (2 to 24 hr) after ligation, n=8, saline 21±6/hr",6 ± 1 h⁻¹
same,average frequency of total rapid (≧300 bpm) ventricular triplets,"etanercept 2 mg/kg IV 24 and 1 hr before LAD ligation, n=8, saline 152±32/hr",45 ± 8 h⁻¹
same,very rapid (≧360 bpm) ventricular triplets versus control (FIG. 31B),"etanercept 2 mg/kg, bortezomib 0.0875 mg/kg",significant descrease; also recorded: significant decrease
same,rapid (>300 bpm) ventricular triplets per hour versus control (FIG. 31A),"etanercept 2 mg/kg, bortezomib 0.0875 mg/kg, anakinra 10 mg/kg",significant descrease
same,idioventricular heart rate on EKG,"etanercept-treated dogs versus saline, after LAD ligation (FIG. 16B)",slower idioventricular heart rate
same,development of sustained ventricular tachycardia or fibrillation,"etanercept-treated dogs, four saline-treated dogs developed it at 11-24 hours post ligation",no etanercept-treated dogs developed sustained ventricular tachycardia or fibrillation
